Measurements taken from patent US12503711B2, “Method of producing and processing diamines to a diamine free base using a carbonate intermediate and an engineered microorganism” (Genomatica, Inc., priority 2014, dated 2025).
Values joined by “and” are separate entries in the source; they are usually repeats but may differ in a detail not shown here. Equal values may be shown once. Read-outs that look alike come from different tables or passages of the source.

How the values were obtained:
[1] = Solvent extraction of HMD from aqueous feed (recovery, distribution coefficient, selectivity); format: physicochemical; conditions: for available free base HMD extracted: 1:1 solvent to feed ratio
Experimental: The example describes the solvent extraction of HMD from the CO2 stripped solution prepared in Example 3 above as well as extracting HMD from an aqueous solution without pH adjustment as a control for solvent performance. The following protocol was used in this example:
The pH of the aqueous feed was measured. In a 50 mL falcon tube, 20 g of solvent was mixed with 20 g of feed. This combination was further aggressively mixed in the falcon tube for 5 minutes and vortexed for 1 minute. The tube with the mixed solvent and feed was allowed to settle until phase separation was complete. The volume of the bottom, aqueous layer was recorded. A sample of the top layer was carefully pipetted out the top layer. A sample the bottom layer was also obtained and the pH of the bottom layer measured. The recovery, distribution coefficients and selectivity based on mass balance were calculated.
The extraction data for three solvents extracting HMD from water are set out in Table 4-1.

[2] = Simulated fermentation: CO2 and HMD fed into MM9 solution, pH monitored; format: physicochemical; conditions: average rate 3.31 g/L/hr
Text: This example reports the results of a simulated fermentation process. Briefly, CO2 (approximately 98% pure) and HMD (70% HMD from Sigma Aldrich) were fed into an MM9 solution that had the following composition: • 0.68% (6.8 g/L) Disodium phosphate Na2HPO4 • 0.3% (3 g/L) Monopotassium phosphate KH2PO4 • 0.15%(1.5 g/L) Ammonium chloride NH4Cl • 0.1% (1 g/L) Ammonium sulfate (NH4)2SO4 • 0.05% (0.5 g/L) Sodium chloride NaCl
The measured pH of the solution and concentration of HMD added over time are set out in FIG. 30.
This feed rate used in this example corresponds to an average rate of 3.31 g/L/hr (a reasonable production rate in an industrial fermentation process). The final titer and feed concentration of HMD was confirmed by LCMS. The HMD and CO2 reach a dynamic equilibrium around pH 8.5. As more HMD is added, more CO2 is absorbed. The simulated HMD:CO2 ratio is 1.95 for pH=8.53. […] FIGS. 31 and 32 illustrate the relative concentration of species as a function of pH for HMD and H2CO3, respectively.
At pH 8.5 (dashed, black line) the major species in solution are the diprotonated HMD and bicarbonate. A minority presence of HMD-carbamate may be present as well.

[3] = HMD/CO2 pH equilibrium under changing conditions (CO2 sparge, air sparge, heat); format: physicochemical; conditions: for pH (temp. in ° C.): 10% w/w aqueous HMD solution
Experimental: This experiment illustrates HMD/CO2 pH equilibrium under changing conditions. In this example, a 10% w/w aqueous HMD solution was prepared (70% HMD purchased from Sigma Aldrich). The HMD solution was heated to 30° C. and initial pH recorded. Next, CO2 (approximately 98% pure) was bubbled into the solution for 60 min while monitoring pH. The CO2 sparge was stopped. Air was sparged into solution for 30 min while monitoring pH. […] The pH was measured by sampling 3 mL to a falcon tube and cooling to 30° C. […] The solution was cooled to 30° C. and a final pH recorded. The measured pH values are plotted in Graphs 1-1, 1-2 and 1-3, below. It was noted that the temperature probe on pH meter was reading 44.4° C. at […]. and cooled back down to 30° C. by the end of the 60 min. […] This temperature increase can also account for the nonlinearity in FIG. 27-29 because pH decreases with increasing temperature.
Extraction should be possible at this pH. Aeration during fermentation may be able to strip off some of the dissolved CO2.

[4] = Regeneration of HMD free base from CO2-adjusted MM9 solution by air sparge and reflux; format: physicochemical; conditions: for CO2:HMD ratio: based on calculation from pH
Experimental: A 250 mL four-neck flask was fitted with a condenser, temperature probe, and air sparge needle. The system was open to air through the top of the condenser. The feed was an aqueous HMD solution in MM9 where pH was adjusted to 8.68 with CO2. The feed solution was analyzed for HMD concentration by LCMS and the pH was measured. The solution was sparged with air and refluxed at 85° C. for three hours. The resulting solution's pH was taken and the concentration of HMD measured by LCMS.
The concentration increased slightly as some water escaped through the condenser and the solution was concentrated. The fraction of HMD in free base form at pH 11.26 is 57%.

[5] = water solubility of the solvent used, cited from earlier work
[6] = HMD in DI water, [HMD] = 835 mM, 20 g solvent : 20 g feed
[7] = HMD in DI water, [HMD] = 835 mM, bottom aqueous layer after extraction, 20 g solvent : 20 g feed
[8] = HMD in deionized (DI) water, [HMD] = 835 mM, aqueous feed before extraction

**Q.** Which results are given for `NCCCCCCN` [HMD, Hexamethylenediamine]?
**A.** available free base HMD extracted ([1]; solvent 1-hexanol): approximately 43%; available free base HMD extracted ([1]; solvent hexane): about 7%; free base HMD available, based on the pH before extraction ([1]; stripped solution from Example 3): 60%; pH of dynamic equilibrium of HMD and CO2 [2]: ~8.5; pH restored by air and heat ([3]; 10% w/w aqueous HMD solution after 60 min CO2 bubbling, then air sparge and heating to 80-88° C, pH read at 30° C): 11.02; pH (temp. in ° C.) ([3]; Heated to 80° C. for 30 min. w/ sparge, sample cooled to 30 °C): 10.49; pH (temp. in ° C.) ([3]; Heated to 88° C. for 15 min. w/ sparge, pH at 22.5 °C): 11.02; pH (temp. in ° C.) ([3]; Heated to 88° C. for 15 min. w/ sparge, pH at 30 °C): 10.76; pH (temp. in ° C.) ([3]; House air sparge for 30 min. at 30° C., pH at 30 °C): 8.23; pH (temp. in ° C.) ([3]; Initial conditions, pH at 30 °C): 12.25; pH (temp. in ° C.) ([3]; Sat open to air over night, pH at 20.6 °C): 10.78; pH (temp. in ° C.) ([3]; Sparge CO2 for 60 min. at 30° C., pH at 30 °C): 7.96; pH ([4]; Feed stream: HMD in MM9, pH adjusted with CO2, @ 21.7° C.): 8.68 @; CO2:HMD ratio ([4]; Feed stream): 1.91; pH ([4]; Product stream after air sparge and reflux at 85° C. for three hours, @ 23.5° C.): 11.26 @; CO2:HMD ratio ([4]; Product stream): 0.277; fraction of HMD in free base form ([4]; at pH 11.26): 57%; pH after CO2 stripping ([4]; feed pH 8.68 in MM9, air sparge, reflux at 85° C for three hours): 11.26

**Q.** For `CCCCCC` [Hexane], which “% Solubility” value ([5]; Table 4-1) is on record?
**A.** Its value is 9.4 × 10^−4%.

**Q.** What about the “% water in extract” value [1] of the same molecule?
**A.** The value was under 0.001%.

**Q.** What about the pH after [1] of the same molecule?
**A.** Its pH after is 12.54 and 11.42.

**Q.** What about the pH before [1] of the same molecule?
**A.** Its pH before is 12.55 and 11.48.

**Q.** What does the source list for `CC(C)CCO` [Isopentanol]?
**A.** % Solubility ([5]; Table 4-1): 2.8%; % water in extract [1, 6]: 9.08%; pH after [1, 7]: 12.16; pH before [1, 8]: 12.70

**Q.** With `OC1CCCCC1` [Cyclohexanol] as the molecule, how does the “% water in extract” value [1, 6] read?
**A.** Its value is 16.65%.

**Q.** What about the pH after [1, 7] of the same molecule?
**A.** The pH after was 12.36.

**Q.** And the pH before [1, 8]?
**A.** The pH before was 12.70.

**Q.** Which results are given for `CCCCCCO` [1-hexanol]?
**A.** % Solubility ([5]; Table 4-1): 0.59%; % Solubility ([5]; Table 4-2): 0.59%
